According to US10066272B2, “Human homeobox gene ventx and macrophage terminal differentiation and activation, compositions and methods thereof” (priority 2011, dated 2018):

What was measured:
Format in all cases: cell-based, human
VentX = VentX expression during cytokine-induced monocyte to macrophage differentiation (RT-PCR, western blot); details: monocytes cultured with cytokine at 100 ng/ml (FIG. 1B)
Protocol: (B) VentX expression during monocyte to macrophage differentiation in vitro. Monocytes were cultured in the presence of M-CSF (M), GM-CSF (GM) or IL3 for indicated days or in the absence of cytokines for 3 days. […] VentX expression in freshly isolated monocytes was used as baseline control (Day 0). […] (D) Time course of VentX expression during in vitro induction of monocytes differentiation into macrophages. Monocytes were subjected to M-CSF treatment in vitro for indicated time. The VentX mRNA levels were determined by quantitative PCR for up to 7 days.
Peripheral blood mononuclear cells (PBMC) from healthy adult donors at Children's Hospital Boston were isolated by Ficoll density gradient centrifugation. […] CD14^+ monocytes were purified from PBMCs using anti-CD14-coated microbeads (Miltenyi Biotec). The purity of freshly isolated CD14^+ monocytes was more than 95% as analyzed by flow cytometry. Monocytes were cultured in 12-well plates at 1×10^6 cells/ml with RPMI 1640 medium containing 10% fetal bovine serum (FBS). […]
Total RNA was isolated by the TRIzol reagent, and an equal amount of RNA was used for first-strand cDNA synthesis with SuperScript III First-Strand Synthesis System (Invitrogen) according to the manufacturer's protocol. […] Quantitative measurement of VentX and cytokines cDNA were performed with SYBR Green on a LightCycler® (480 Real-Time PCR System; Roche).

primary monocytes = assay: Monocyte to macrophage differentiation after siRNA transfection, surface markers by FACS; details: monocytes, 100 ng/mL M-CSF, 4 days after transfection (FIG. 12)
Protocol: (A) knockdown of VentX expression in primary monocytes by RNA interference. Monocytes were transfected with siRNA against GFP or VentX through electroporation. VentX mRNA levels were determined by real time PCR at 3 days after transfection (left); VentX protein level was determined by western blotting at 4 days after transfection (right). (B) Effects of VentX knockdown on macrophage morphogenesis during M-CSF induced differentiation. Monocytes were transfected with either siGFP or siVentX and subsequently exposed to 100 ng/mL M-CSF. […] Magnification of photographs, ×200. Note: a portion of cells lost their original morphology during Wright-Giemsa staining procedure. (C) Effects of VentX knockdown on macrophage surface expression of CD71. […] Filled blue histogram represents the isotope control staining; red histogram represents monocytes transfected with siGFP; green histogram represents monocytes transfected with siVentX. (D) Bar graphs show mean+SD of 6 different experiments in (C). Paired t test was used to reveal the statistical significance. **p<0.01.
(A) Left panel: Flow cytometry analysis of indicated surface markers in monocytes transfected with siGFP or siVentX, respectively; right panel: bar graphs show the mean+SD of at least three separate experiments. *p<0.05; **p<0.01. (B) Effects of VentX knockdown on macrophage viability. Monocytes were transfected with either siGFP or siVentX and subsequently exposed to 100 ng/mL M-CSF for 3 days. Cells were then harvested and stained with PI and Annexin V and analyzed by flow cytometry. (C) Effects of VentX knockdown on phagocytosis. Monocytes were transfected with siGFP or siVentX. Phagocytosis assays were carried out as described in materials and methods. […]
Surface expression of CD71 was determined by FACS analysis at 4 days after siRNA transfection. […]
Peripheral blood mononuclear cells (PBMC) from healthy adult donors at Children's Hospital Boston were isolated by Ficoll density gradient centrifugation. […] The purity of freshly isolated CD14^+ monocytes was more than 95% as analyzed by flow cytometry. […]

[1] = system: cytokine mRNA expression in macrophages; assay: Effects of VentX knockdown on cytokine mRNA expression in macrophages (real-time PCR); design: unit not given here; details: macrophages transfected with siRNA; classical activation by LPS plus IFN-γ
Protocol: Macrophages were generated through incubation of freshly isolated monocytes with 100 ng/mL M-CSF for 4 days. These macrophages were then transfected with siGFP or siVentX, respectively, and further cultured in RPMI 1640 medium for additional 3 days. Thereafter, cells were exposed to 1 μg/mL LPS plus 20 ng/mL γ-IFN for 6 hours. (A) Surface staining of CD40, CD80, CD86 and HLA-DR and intracellular staining of TNF-α and IL1-β were analyzed by flow cytometry. (B) Secreted TNF-α, IL1-β and IL12p70 from culture supernatants were determined with ELISA kits. (C) Reactive oxygen species (ROS) from siGFP or siVentX transfected macrophages were analyzed with fluorescence microscope (left) and flow cytometry (middle). […] (D) Nitrate level from siGFP and siVentX transfected macrophages. Data represent mean+SD of three different experiments. (E) Phagocytosis of siGFP and siVentX transfected macrophage. Red histogram represents transfection with siGFP; green histogram represents transfection with siVentX. Left panel: cells were incubated on ice; right panel: cells were incubated at 37° C. (F) Effects of VentX knockdown on mixed lymphocyte reaction. Irradiated macrophages that had been transfected with siGFP or siVentX were utilized to stimulate allogenic naïve CD4 T cells proliferation. The proliferation rates were represented by counts per minute (CPM). […] Statistically significant difference (p<0.05) was observed when 4×10^2 or 2×10^3 cells were added.
(Martinez, et al. 2008 Front Biosci 13:453-461; Mosser, et al. 2008 Nat Rev Immunol 8:958-969.) To investigate whether VentX is required for classical activation of macrophages, a loss-of-function approach by knockdown of VentX was used.
Human primary monocytes were transfected using the Human Monocyte Nucleofector Kit (Lonza) according to the manufacturer's instructions. Briefly, 5×10^6monocytes were resuspended into 100 μl nucleofector solution with 0.5 nmol of either VentX siRNA (forward: 5′-[…]-3′ (SEQ ID NO:4); reverse: 5′-[…]-3′ (SEQ ID NO:5)) or non-effective GFP siRNA (forward: 5′-[…]-3′ (SEQ ID NO:6); 5′-reverse: […]-3′ (SEQ ID NO:7)) before electroporation with nucleofector II Device (Lonza). Cells were then immediately removed from the device and incubated overnight with 1 ml pre-warmed Human Monocyte Nucleofector Medium containing 2 mM glutamine and 10% FBS. Cells were then resuspended into complete RPMI medium and treated with appropriate cytokines to induce differentiation into macrophages. Similarly, macrophages derived from monocytes were transfected with Human Macrophage Nucleofector Kit (Lonza) following the manufacturer's instructions.
Total RNA was isolated by the TRIzol reagent, and an equal amount of RNA was used for first-strand cDNA synthesis with SuperScript III First-Strand Synthesis System (Invitrogen) according to the manufacturer's protocol. To amplify VentX cDNA with conventional PCR, AccuPrime™ Taq DNA polymerase system (Invitrogen) was used following the manufacturer's instructions. PCR products were separated on 2% agarose gels and stained with ethidium bromide. GAPDH was used as an internal control. Quantitative measurement of VentX and cytokines cDNA were performed with SYBR Green on a LightCycler® (480 Real-Time PCR System; Roche). The primers used are listed in the Sequence Listing (SEQ ID NOs: 24-109).

Molecule: GM-CSF: granulocyte macrophage colony-stimulating factor, purchased from PeproTech
- VentX expression during monocyte to macrophage differentiation (VentX): up-regulated

Molecule: VentX siRNA-2: second siRNA sequence against VentX, 5′-UCUACUCAACGUCUUCUGGCCUUGCCAAU-3′ (SEQ ID NO:3) (listed as RNA, chemistry not given here)
- surface expression of CD71 and other markers (primary monocytes): down-regulated

Molecule: siGFP: non-effective GFP siRNA, forward 5′-UGACCACCCUGACCUACGGCGUGCAGUGC-3′ (SEQ ID NO:6), reverse SEQ ID NO:7 (antisense GCACUGCACGCCGUAGGUCAGGGUGGUCA; listed as RNA, chemistry not given here) [reference compound]
- IL1-β cytokine mRNA expression [1]: 51.08 ± 3.2
- IL6 cytokine mRNA expression [1]: 3.40 ± 0.21
- IL8 cytokine mRNA expression [1]: 471 ± 10.2
- IL12p35 cytokine mRNA expression [1]: 1.77 ± 0.21
- IL12p40 cytokine mRNA expression [1]: 0.52 ± 0.02
- M-SCSF cytokine mRNA expression [1]: 0.40 ± 0.01
- TNF-α cytokine mRNA expression [1]: 0.46 ± 0.04

B1: M-CSF: macrophage colony-stimulating factor, purchased from PeproTech (protein, UniProt P09603 33-554, looked up)
Macrophage colony-stimulating …: EEVSEYCSHMIGSGHLQSLQRLIDSQMETSCQITFEFVDQEQLKDPVCYLKKAFLLVQDIMEDTMRFRDNTPNAIAIVQLQELSLRLKSCFTKDYEEHDKACVRTFYETPLQLLEKVKNVFNETKNLLDKDWNIFSKNCNNSFAECSSQDVVTKPDCNCLYPKAIPSSDPASVSPHQPLAPSMAPVAGLTWEDSEGTEGSSLLPGEQPLHTVDPGSAKQRPPRSTCQSFEPPETPVVKDSTIGGSPQPRPSVGAFNPGMEDILDSAMGTNWVPEEASGEASEIPVPQGTELSPSRPGGGSMQTEPARPSNFLSASSPLPASAKGQQPADVTGTALPRVGPVRPTGQDWNHTPQKTDHPSALLRDPPEPGSPRISSLRPQGLSNPSTLSAQPQLSRSHSSGSVLPLGELEGRRSTRDRRSPAEPEGGPASEGAARPLPRFNSVPLTDTGHERQSEGSFSPQLQESVFHLLVPSVILVLLAVGGLLFYRWRRRSHQEPQRADSPLEQPEGSPLTQDDRQVELPV
- VentX expression during monocyte to macrophage differentiation (VentX): up-regulated
